We go through five compounds from patent publication US20220356174A1, “PYRIDIN-2-ONE COMPOUNDS USEFUL AS SMARCA2 ANTAGONISTS” (Epizyme, Inc., priority 2018, published 2022).

What is called IC50 is the concentration at which inhibition is half-maximal.

For test [1], the target named is T1, FL-SMARCA2 (full-length human SMARCA2 isoform 1) (Homo sapiens, UniProt P51531).
T1 construct: FLAG tag (YKDDDDK) (C); made in house; host or cells: Sf21 insect cells (baculovirus, pFastBacI)
Nature of the test: SMARCA2 ATPase activity assay (ADP-Glo, chicken mononucleosome substrate). The format is biochemical. Particulars: Table 3.1; ATPase assay, enzyme 5 nM, ATP 250 uM, chicken mononucleosome 10 nM, 30 min preincubation.

Test [2] relates to A549 cells. Nature of the test: High-throughput proliferation (HTP) assay for A549 cells (CellTiter-Glo, 7 days). It counts as cell-based. The note with it: Homo sapiens, 168 h, read-out: A549 SMARCA2 IC50. The method, boiled down:
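A549 cells plated at 62.5 cells/well in F12K + 10% HI-FBS onto pre-dispensed compound, grown 7 days at 37° C., 5% CO2. Viability by CellTiter-Glo luminescence after 30 min at RT; EC50/IC50 from DMSO (0%) and 10 μM Doxorubicin (100%) inhibition controls.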
(Cellular ATP, detected with luciferase, serves as a proxy for viable cell number.)

The next test concerns the target T2, SMARCA2 (Homo sapiens, UniProt P51531).
T2 construct: FLAG tag (YKDDDDK) (C); made in house; host or cells: Sf21 insect cells (baculovirus, pFastBacI)
In words: SMARCA2 FRET nucleosome remodeling activity assay. It counts as biochemical. As for the experimental part: The SMARCA2 remodeling assay was initiated by the addition of 2 uL of a nucleosome remodeling assay substrate and ATP mixture (final volume=10 uL). […] The assays were terminated after 15 minutes by the addition of 2 uL EDTA (final concentration of 25 mM). The SMARCA2 remodeling activity was determined by measuring the fluorescence ratio of the Cy3 and Cy5 labels ([…]). The remodeling of the nucleosome substrate causes an increase in the spacing between the Cy3 and Cy5 labels and therefore a reduction in FRET and an increase in Cy3/Cy5 fluorescence ratio.

Test [3] concerns A549 cells. In words: Long term proliferation (LTP) assay, day 15 IC50 in A549 cells. It counts as cell-based. The note with it: Homo sapiens, 360 h.
The next test concerns the target FL-SMARCA4 (Homo sapiens, UniProt P51532). In words: SMARCA4 ATPase activity assay (ADP-Glo, chicken mononucleosome substrate). The note with it: FL-SMARCA4 IC50, Table 3.2; ATPase assay, enzyme 5 nM, ATP 250 uM, chicken mononucleosome 10 nM, 30 min preincubation. In general terms: In ADP-Glo the light output rises with the ADP produced.

Where only a bound is given, the exact number is not on record here.

Chain of FL-SMARCA4 (P51532 whole entry): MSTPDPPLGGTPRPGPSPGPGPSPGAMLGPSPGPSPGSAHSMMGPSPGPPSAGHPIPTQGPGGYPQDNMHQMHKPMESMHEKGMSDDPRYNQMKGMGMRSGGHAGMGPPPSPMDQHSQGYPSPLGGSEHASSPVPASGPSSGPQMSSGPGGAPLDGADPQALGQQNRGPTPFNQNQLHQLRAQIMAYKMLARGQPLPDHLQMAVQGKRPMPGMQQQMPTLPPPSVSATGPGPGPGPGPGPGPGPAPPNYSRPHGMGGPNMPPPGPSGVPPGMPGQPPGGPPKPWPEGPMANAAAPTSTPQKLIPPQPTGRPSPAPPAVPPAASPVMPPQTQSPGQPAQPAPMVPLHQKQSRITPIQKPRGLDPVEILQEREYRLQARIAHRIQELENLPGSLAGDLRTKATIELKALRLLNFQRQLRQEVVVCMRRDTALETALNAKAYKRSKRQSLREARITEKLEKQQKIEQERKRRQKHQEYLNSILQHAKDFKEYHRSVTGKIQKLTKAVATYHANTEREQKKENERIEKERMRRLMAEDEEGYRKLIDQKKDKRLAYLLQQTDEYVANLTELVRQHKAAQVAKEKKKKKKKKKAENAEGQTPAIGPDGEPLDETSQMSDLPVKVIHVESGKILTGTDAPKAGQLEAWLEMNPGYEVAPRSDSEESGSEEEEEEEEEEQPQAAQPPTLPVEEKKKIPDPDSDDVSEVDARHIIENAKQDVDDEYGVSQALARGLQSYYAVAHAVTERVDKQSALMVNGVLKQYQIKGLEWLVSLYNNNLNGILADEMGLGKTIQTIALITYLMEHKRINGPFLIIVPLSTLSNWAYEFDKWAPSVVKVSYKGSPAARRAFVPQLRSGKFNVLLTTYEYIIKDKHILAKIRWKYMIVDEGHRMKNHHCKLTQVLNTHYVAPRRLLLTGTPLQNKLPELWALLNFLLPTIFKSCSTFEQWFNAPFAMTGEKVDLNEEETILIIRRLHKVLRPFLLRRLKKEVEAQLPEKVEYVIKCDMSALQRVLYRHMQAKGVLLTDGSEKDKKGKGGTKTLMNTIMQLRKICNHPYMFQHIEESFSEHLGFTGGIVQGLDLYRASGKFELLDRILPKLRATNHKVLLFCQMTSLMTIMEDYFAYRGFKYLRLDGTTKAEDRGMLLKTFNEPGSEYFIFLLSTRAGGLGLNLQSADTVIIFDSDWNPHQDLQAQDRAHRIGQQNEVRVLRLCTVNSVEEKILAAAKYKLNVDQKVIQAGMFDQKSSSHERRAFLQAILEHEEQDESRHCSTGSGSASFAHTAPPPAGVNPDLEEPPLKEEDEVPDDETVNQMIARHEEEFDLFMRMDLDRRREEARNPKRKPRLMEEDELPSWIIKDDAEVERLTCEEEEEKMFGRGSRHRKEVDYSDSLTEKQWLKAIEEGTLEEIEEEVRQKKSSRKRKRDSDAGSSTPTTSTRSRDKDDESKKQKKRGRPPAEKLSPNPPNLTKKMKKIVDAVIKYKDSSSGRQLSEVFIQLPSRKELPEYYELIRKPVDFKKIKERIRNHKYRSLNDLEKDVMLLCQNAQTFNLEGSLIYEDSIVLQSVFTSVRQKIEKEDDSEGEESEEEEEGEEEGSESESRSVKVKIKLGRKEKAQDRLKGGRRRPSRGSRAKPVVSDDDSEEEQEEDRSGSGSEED
T1 sequence (P51531 with tags, fused parts or gaps): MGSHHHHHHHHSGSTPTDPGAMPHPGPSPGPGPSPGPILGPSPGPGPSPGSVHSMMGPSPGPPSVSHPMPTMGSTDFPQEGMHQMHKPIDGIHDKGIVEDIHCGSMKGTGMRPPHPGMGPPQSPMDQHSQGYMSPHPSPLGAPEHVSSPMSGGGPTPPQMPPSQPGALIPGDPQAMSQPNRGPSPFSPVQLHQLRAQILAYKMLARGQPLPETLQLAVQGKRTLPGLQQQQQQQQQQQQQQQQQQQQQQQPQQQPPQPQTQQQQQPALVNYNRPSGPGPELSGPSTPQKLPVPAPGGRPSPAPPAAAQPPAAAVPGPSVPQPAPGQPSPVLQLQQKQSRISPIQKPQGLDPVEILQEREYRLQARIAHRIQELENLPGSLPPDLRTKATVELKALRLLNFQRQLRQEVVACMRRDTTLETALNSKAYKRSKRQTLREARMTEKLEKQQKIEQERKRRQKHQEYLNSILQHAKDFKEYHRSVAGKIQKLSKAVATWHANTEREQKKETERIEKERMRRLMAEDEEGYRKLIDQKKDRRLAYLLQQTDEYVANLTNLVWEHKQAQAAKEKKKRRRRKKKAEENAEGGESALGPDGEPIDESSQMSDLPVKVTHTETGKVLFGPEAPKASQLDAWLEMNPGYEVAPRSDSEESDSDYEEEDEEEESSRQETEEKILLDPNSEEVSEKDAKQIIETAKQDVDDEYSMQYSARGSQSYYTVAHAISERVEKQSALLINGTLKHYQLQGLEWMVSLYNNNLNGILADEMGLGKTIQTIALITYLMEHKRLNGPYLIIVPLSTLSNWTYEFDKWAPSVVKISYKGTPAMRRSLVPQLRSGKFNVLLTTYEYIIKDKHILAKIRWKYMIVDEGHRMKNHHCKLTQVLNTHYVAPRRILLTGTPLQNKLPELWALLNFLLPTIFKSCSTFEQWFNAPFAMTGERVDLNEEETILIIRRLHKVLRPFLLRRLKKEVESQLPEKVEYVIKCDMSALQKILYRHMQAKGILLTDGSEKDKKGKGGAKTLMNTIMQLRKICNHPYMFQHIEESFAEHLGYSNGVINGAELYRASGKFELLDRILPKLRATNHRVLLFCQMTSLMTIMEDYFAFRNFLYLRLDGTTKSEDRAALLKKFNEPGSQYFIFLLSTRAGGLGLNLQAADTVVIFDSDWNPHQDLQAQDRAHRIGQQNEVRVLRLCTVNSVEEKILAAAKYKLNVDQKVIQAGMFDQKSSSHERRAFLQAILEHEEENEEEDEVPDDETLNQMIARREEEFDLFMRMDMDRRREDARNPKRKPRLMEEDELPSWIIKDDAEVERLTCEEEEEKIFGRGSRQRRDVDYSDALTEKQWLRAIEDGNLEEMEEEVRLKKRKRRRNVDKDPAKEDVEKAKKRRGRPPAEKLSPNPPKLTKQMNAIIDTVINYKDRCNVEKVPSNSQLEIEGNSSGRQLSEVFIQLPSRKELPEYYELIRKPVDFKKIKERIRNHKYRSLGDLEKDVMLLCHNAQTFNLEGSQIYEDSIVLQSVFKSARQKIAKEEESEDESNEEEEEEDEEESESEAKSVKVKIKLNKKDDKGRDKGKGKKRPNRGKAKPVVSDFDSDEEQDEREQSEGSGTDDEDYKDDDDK
T2 sequence (P51531 with tags, fused parts or gaps): as above

On to `CCn1cc(NC(=O)c2cc(C#N)c(C#N)s2)cc(Cl)c1=O` [Compound 191], for which the IC50 in test [1] was determined as 45.9 nM; in the test with A549 cells [2], 13400 nM; on SMARCA2, 65.3 nM; with A549 cells [3] it was 8300 nM; against FL-SMARCA4, 184 nM.

In the case of `N#Cc1cc(C(=O)Nc2cc(Cl)c(=O)n(CCF)c2)sc1C#N` [Compound 192], the IC50 is 17.1 nM in test [1]; at least 20000 nM with A549 cells [2]; 21.9 nM at SMARCA2; 4200 nM in the test on A549 cells [3]; 87.4 nM against FL-SMARCA4.

For `O=C(Nc1cc(F)c(=O)n(CCF)c1)c1cc(Cl)c(C(F)(F)F)s1` [Compound 249], the IC50 in test [1] worked out at 35.8 nM; with A549 cells [2] it was 734 nM; at SMARCA2, 70 nM; in the test on A549 cells [3], 323 nM; against FL-SMARCA4, 260 nM.

On to `O=C(Nc1cc(F)c(=O)n(CCF)c1)c1cc(F)c(Cl)s1` [Compound 260], for which the IC50 is 15.3 nM in test [1]; 528 nM in the test with A549 cells [2]; 18.2 nM against SMARCA2; 93 nM in the test on A549 cells [3]; 65.4 nM at FL-SMARCA4.

On to `O=C(Nc1cc(F)c(=O)n(CCF)c1)c1cnc(C(F)(F)F)s1` [Compound 265], for which the IC50 is 81.5 nM in test [1]; 7300 nM in the test on A549 cells [2]; 143 nM on SMARCA2; 851 nM in the test with A549 cells [3]; 590 nM on FL-SMARCA4.
